We go through one compound from patent publication US20230098254A1, “SCUTELLARIAE RADIX COMPOUNDS AND USE THEREOF FOR INHIBITING OXIDATIVE PHOSPHORYLATION PATHWAY OF MITOCHONDRIA” (priority 2020, published 2023).

As a reminder, the IC50 is the point on the concentration scale where inhibition reaches its midpoint.

The structures appear in SMILES notation. Like-named read-outs stand apart in the source and are kept apart here.

Assay [1] has as its system G-402. The experiment in a line: Cell viability CellTiter-Glo, G-402. The assay is classed as cell-based. Conditions: Homo sapiens; G-402, kidney cancer. The procedure: (§1) Cell viability was measured by using the Promega CellTiter-Glo kit, the kit reflected cell viability by directly measuring intracellular ATP content. Different cancer cells were cultured in culture medium, and the 50% inhibitory concentration IC50 of the compound SJ2858 was measured by Promega CellTiter-Glo kit. The name source and culture condition of each tumor cell line were as follows:
Cell line G-402 (ATCC, No. CRL-1440) was cultured in McCoy's 5a medium containing 10% fetal bovine serum (+P/S);

Assay [2] relates to SNU-449. The experiment in a line: Cell viability CellTiter-Glo, SNU-449. The assay is classed as cell-based. As to conditions: Homo sapiens; SNU-449, liver cancer. The procedure: as §1
Cell line SNU-449 (ATCC, No. CRL-2234) was cultured in RPMI1640 medium containing 10% fetal bovine serum (+P/S);
A general note: In ATP-based viability assays light output follows the ATP content of the culture.

The test system of assay [3] is COLO 320HSR. The experiment in a line: Cell viability CellTiter-Glo, COLO 320HSR. As to conditions: Homo sapiens, intestinal cancer. The assay is classed as cell-based. As for the experimental part:
as §1
Cell line COLO 320HSR (ATCC, No. CCL-220.1) was cultured in RPMI1640 medium containing 10% fetal bovine serum (+P/S);

In assay [4] the test system is SNU-398. The experiment in a line: Cell viability CellTiter-Glo, SNU-398. The assay is classed as cell-based. As to conditions: Homo sapiens; SNU-398, liver cancer. As for the experimental part: as §1
Cell line SNU-398 (ATCC, No. CRL-2233) was cultured in RPMI1640 medium (+P/S); containing 10% fetal bovine serum (+P/S);

Assay [5] deals with NCI-H1155. The experiment in a line: Cell viability CellTiter-Glo, NCI-H1155. The assay is classed as cell-based. As to conditions: Homo sapiens; NCI-H1155, lung cancer. As for the experimental part:
as §1
Cell line NCI-H1155 (ATCC, No. CRL-5818) was cultured in serum-free ACL-4 medium (+P/S);

The test system of assay [6] is OCI-AML-4. The experiment in a line: Cell viability CellTiter-Glo, OCI-AML-4. The assay is classed as cell-based. Conditions: OCI-AML-4, leukemia. As for the experimental part: as §1
Cell line OCI-AML-4 (DSMZ, No. ACC-729) was cultured in alpha-MEM medium containing 20% fetal bovine serum and 20% volume fraction of 5637 cell line adjusted medium (+P/S);

Assay [7] relates to HH. The experiment in a line: Cell viability CellTiter-Glo, HH. The assay is classed as cell-based. Conditions: Homo sapiens, lymphoma. The procedure:
as §1
Cell line HH (ATCC, No. CRL-2105) was cultured in RPMI1640 medium containing 10% fetal bovine serum (+P/S);

Assay [8] concerns U-87 MG. The experiment in a line: Cell viability CellTiter-Glo, U-87 MG. The assay is classed as cell-based. As to conditions: Homo sapiens, brain cancer. As for the experimental part: as §1
Cell line U-87MG (ATCC, No. HTB-14) was cultured in EMEM medium containing 10% fetal bovine serum (+P/S);

The test system of assay [9] is OCI-LY-19. The experiment in a line: Cell viability CellTiter-Glo, OCI-LY-19. The assay is classed as cell-based. Conditions: Homo sapiens, OCI-LY19; OCI-LY-19, lymphoma. The procedure: as §1
Cell line OCI-LY-19 (DSMZ, code ACC-528) was cultured in 80-90% alpha-MEM medium containing 10-20% h.i. FBS (+P/S);

In assay [10] the test system is SU-DHL-2. The experiment in a line: Cell viability CellTiter-Glo, SU-DHL-2. The assay is classed as cell-based. Conditions: Homo sapiens; SU-DHL-2, lymphoma. As for the experimental part: as §1
Cell line SU-DHL-2 (ATCC, No. CRL-2956) was cultured in RPMI1640 medium containing 10% fetal bovine serum (+P/S);

For assay [11], the system named is HCC1806. The experiment in a line: Cell viability CellTiter-Glo, HCC1806. Conditions: Homo sapiens; HCC1806, breast cancer. The assay is classed as cell-based. As for the experimental part:
as §1
Cell line HCC1806 (ATCC, No. CRL-2335) was cultured in RPMI1640 medium containing 10% fetal bovine serum (+P/S);

The test system of assay [12] is G-401. The experiment in a line: Cell viability CellTiter-Glo, G-401. The assay is classed as cell-based. Conditions: Homo sapiens; G-401, kidney cancer. The procedure:
as §1
Cell line G-401 (ATCC, No. CRL-1441) was cultured in McCoy's 5a medium containing 10% fetal bovine serum (+P/S);

The test system of assay [13] is GAK. The experiment in a line: Cell viability CellTiter-Glo, GAK. The assay is classed as cell-based. As to conditions: melanoma. The procedure:
as §1
Cell line GAK (JCRB, No. JCRB0180) was cultured in Ham's F12 medium containing 20% fetal bovine serum (+P/S);

Assay [14] relates to NCI-H1048. The experiment in a line: Cell viability CellTiter-Glo, NCI-H1048. The assay is classed as cell-based. Conditions: Homo sapiens; NCI-H1048, lung cancer. As for the experimental part:
as §1
Cell line NCI-H1048 (ATCC, No. CRL-5853) was cultured in HITES medium containing 5% fetal bovine serum (+P/S);

For assay [15], the system named is 22RV1. The experiment in a line: Cell viability CellTiter-Glo, 22RV1. Conditions: Homo sapiens; 22RV1, prostate cancer. The assay is classed as cell-based. As for the experimental part: as §1
Cell line 22RV1 (ATCC, No. CRL-2505) was cultured in RPMI1640 medium containing 10% fetal bovine serum (+P/S);

The subject of assay [16] is ACHN. The experiment in a line: Cell viability CellTiter-Glo, ACHN. The assay is classed as cell-based. Conditions: Homo sapiens, kidney cancer. As for the experimental part:
as §1
Cell line ACHN (ATCC, No. CRL-1611) was cultured in EMEM medium containing 10% fetal bovine serum (+P/S);

Assay [17] has as its system G-361. The experiment in a line: Cell viability CellTiter-Glo, G-361. The assay is classed as cell-based. As to conditions: Homo sapiens; G-361, melanoma. As for the experimental part:
as §1
Cell line G-361 (ATCC, No. CRL-1424) was cultured in McCoy's 5a medium containing 10% fetal bovine serum (+P/S).

Assay [18] relates to WSU-DLCL2. The experiment in a line: Cell viability CellTiter-Glo, WSU-DLCL2. The assay is classed as cell-based. As to conditions: Homo sapiens, WSUDLCL2; WSU-DLCL2, lymphoma. The procedure:
as §1
Cell line WSU-DLCL2 (DSMZ, No. ACC-575) was cultured in RPMI1640 medium containing 10% fetal bovine serum (+P/S);

For assay [19], the system named is Daoy cell. The experiment in a line: Cell viability, Promega CellTiter-Glo, Daoy cell. The assay is classed as cell-based, human. Conditions: Homo sapiens, Daoy, read-out: IC50 of cell viability inhibition. The procedure: Cell viability was detected by using the Promega CellTiter-Glo kit, the kit reflected cell viability by directly measuring intracellular ATP content. […] Daoy cell and NCI-H82 cell were cultured in DMEM containing 10% FBS (plus p/s).

Assay [20] deals with OCI-AML-5. The experiment in a line: Cell viability CellTiter-Glo, OCI-AML-5. The assay is classed as cell-based. As to conditions: Homo sapiens; OCI-AML-5, leukemia. As for the experimental part:
as §1
Cell line OCI-AML-5 (DSMZ, No. ACC-247) was cultured in alpha-MEM medium containing 20% fetal bovine serum and 20% volume fraction of 5637 cell line adjusted medium (+P/S);

Assay [21] has as its system Jurkat, Clone E6-1. The experiment in a line: Cell viability CellTiter-Glo, Jurkat, Clone E6-1. Conditions: Homo sapiens, Clone E6-1, leukemia. The assay is classed as cell-based. As for the experimental part: as §1
Cell line Jurkat, Clone E6-1 (ATCC, No. TIB-152) was cultured in RPMI1640 medium containing 10% fetal bovine serum (+P/S);

Regarding `O=c1cc(-c2ccccc2)oc2cc(O)c(O)c(O)c12` [Compound SJ2858, baicalein], the concentration for half-maximal inhibition (IC50) in assay [1] worked out at 4.2 µM; in assay [2], 26.9 µM; in assay [3] it was 17.8 µM; in assay [4], 13 µM; in assay [5], 19.6 µM; in assay [6], 24.6 µM. Moreover, the IC50 in [7] was 34 µM; in assay [8], 19 µM; in [9] it was 52.3 µM; in assay [10], 6.2 µM; in assay [11], 25.7 µM; in assay [12], 12.3 µM. Further, the half-maximal inhibitory concentration (IC50) in [13] turned out to be 23.1 µM; in assay [14], 15 µM; in assay [15] it was 25.9 µM; in assay [16], 17.7 µM; in [17], 33.6 µM; in assay [18] it was 21.3 µM. In addition, the IC50 is 13.2 µM in [19] (Daoy cell with CSA (1.5 μM mPTP inhibitor)), 35.2 µM in assay [19] (Daoy cell without CSA (active mPTP)), 45.1 µM in assay [20] and 14.2 µM in assay [21].
